Assay results taken from patent US20230088286A1, “USP7 INHIBITOR FOR USE IN THE TREATMENT OF CANCER” (ALMAC DISCOVERY LIMITED, priority 2020, published 2023).
Where two headings read alike, the source gives them in different places.

Columns and labels:
VEGF = experiment: Circulating serum VEGF by ELISA in CT-26 tumour bearing mice; format: in vivo, mouse; details: day 15 post tumour grafting
[1] = test system: cancer cells, fibroblasts and endothelial cells; experiment: Scratch wound cell migration assay; format: cell-based, human; details: any of tested cells
Procedure: Pictures of wound closure were taken every 2 hours during a 4-day assay using a time-lapse microscope. Charts are displaying the percentage of wound closure over time.
96-well ImageLock plates were coated with 0.1 mg/ml growth factor reduced Matrigel® and incubated for 1 h at 37° C. Cells were seeded a density of 10,000-40,000 cells/well in 100 μL/well and incubated overnight. Next day wounds were simultaneously created in all wells using the WoundMaker. After wounding, media was aspirated from each well and cells were washed twice with PBS. For invasion cells were overlayed with 50 μL of the Matrigel® top layer at 3mg/ml and incubated for 30 min at 37° C. […] Cell plates were placed into the IncuCyte live-cell analysis system and each well imaged using 10× objective every 2 hours for the total of 5-days. Images were analysed using IncuCyte scratch wound protocol and results presented as percentage of wound confluence.

[2] = test system: activated primary fibroblasts WI38, IMR90 and HDF; experiment: sVEGF ELISA in activated primary fibroblasts; format: cell-based, human; details: fibroblasts activated with anti-CD3/anti-CD28 stimulated PBMCs, FGF-2 or TGFβ
From the text: FIG. 5: USP7 inhibition decreased secreted VEGF levels in activated fibroblasts. The USP7-mediated decrease in VEGF secretion observed in the co-cultures can be solely attributed to modulation of secreted VEGF in primary fibroblasts.
(FIG. 4). […] During the wound healing process or following stimulation by acute or chronic inflammatory signals, fibroblasts acquire an activated phenotype (referred to as myofibroblasts). Once activated, myofibroblasts proliferate and migrate, show contractile activity, exert physical forces to modify tissue architecture and become transcriptionally active leading to the secretion of cytokines, chemokines and extra-cellular matrix (ECM) components. In the tumour microenvironment, the majority of residual fibroblasts become activated and are known as cancer associated fibroblasts (CAF). In order to generate a myofibroblast phenotype, WI38, IMR90 and HDF were co-cultured with anti-CD3/anti-CD28 stimulated PBMCs or were stimulated by FGF-2 or TGFβ. […] The USP7 inhibitor-mediated decrease in VEGF secretion was only observed in primary fibroblasts; immortalized lung fibroblasts (WI38-VA13) were insensitive to USP7 inhibitor treatment, probably due to the destabilized p53 in the SV-40 immortalized fibroblasts (FIG. 7).
(§1) For the co-culture experiments, 5×10^4 cancer cells were seeded in transwell in 0.5 mL complete growth medium and placed on the top of 0.1×10^6 fibroblasts plated in 12-well in 1 mL low serum growth media overnight. Following day cancer cells were washed with PBS and media replaced with reduced (1%) serum growth media. 0.5×10^6 PBMC were plated on top of fibroblasts, incubated for 45 min and activated with CD3 (1 μg/ml final concentration) and CD28 (5 μg/ml final concentration). […] Monoculture experiments, 0.1×10^6 cells were seeded in 12-well in 1 mL of complete growth media (cancer cells) or low serum growth media (fibroblasts) and incubated overnight. […] Afterwards, cell culture media was collected, cell debris were removed by centrifugation the concentration of VEGF in the cell culture supernatants was measured using the human/mouse VEGF immunoassay Quantikine ELISA kit (R&D systems, Minneapolis, Minn., USA) according to the manufacturer's instructions. For the intracellular VEGF detection, total protein concentration was determined by BCA (Pierce Chemical, USA) and VEGF levels determined using the same kit described above.

VEGFA mRNA = experiment: RNA-seq of hypoxia activated HDF, VEGFA mRNA; format: cell-based, human
Procedure: Afterwards RNA was extracted and analysed by RNA-seq. […] To evaluate which signalling pathways are induced in hypoxia activated fibroblasts, a comparative pathway analysis was performed on of samples coming from both, non-activated (normoxia) and hypoxia activated primary fibroblasts.

[3] = test system: cancer cells, primary and immortalized fibroblasts; experiment: Cell proliferation assay (CellTiter-Glo viability); format: cell-based, human
Procedure: The functional impact of USP7-mediated decrease in VEGF secretion is not on fibroblast or cancer cell proliferation. […] After 72 hours cell viability was measured by Cell-Titer-Glo. The results were normalized to the control non-treated group (mean±SD, n=3).

[4] = test system: HT29, H1299, LNCaP and MCF-7 cells; experiment: sVEGF ELISA in cancer cells; format: cell-based, human; details: MCF-7, HT29, H1299, compared to vehicle-treated cells
Procedure: Levels of sVEGF released to cell culture media was measured by ELISA.
as §1

HIF-1α = experiment: Cycloheximide chase assay, HIF-1α half-life
Procedure: Cells were lysed at the indicated time points (from 0 to 60 min) and samples analysed by immuno-blotting probing for HIF-1α. HIF-1α half-life was quantified by densitometry analysis. β-Actin was included as a normalization control.
Samples were subsequently collected at various time points for immuno-blot analysis probing for HIF-1α levels.
Cells were harvested and lysed at different time points and subjected to Western blot analysis using anti-HIF-1α antibody (D2U3T, Rabbit mAb #14179 Cell Signalling) and β-actin (Santa Cruz: A5316; 1:5000) as a loading control.

MDCK = MDCK permeability; format: in vitro ADME
MDCK permeability = format: in vitro ADME; details: dog, MDCK; read-out: MDCK Papp ratio
KSol = format: physicochemical
TSol = format: physicochemical
USP7 = USP7 (Homo sapiens, UniProt Q93009); experiment: USP7 FP; format: biochemical
LM CLhep (h) = format: in vitro ADME, human
3A4 = 3A4 (Homo sapiens, UniProt P08684); experiment: Cyp inhibition 3A4; format: in vitro ADME; details: read-out: Cyps: 3A4
1A2 = 1A2 (Homo sapiens, UniProt P05177); experiment: Cyp inhibition 1A2; format: in vitro ADME; details: read-out: Cyps: 1A2
Ub-MDM2 = Ub-MDM2 MSD (HCT116); format: cell-based; details: Homo sapiens, HCT-116
Hep CLhep (h) = format: in vitro ADME, human
2C9 = 2C9 (Homo sapiens, UniProt P11712); experiment: Cyp inhibition 2C9; format: in vitro ADME; details: read-out: Cyps: 2C9
Oral availability = format: in vivo; details: compared to AD-04

Sequence of USP7 (Q93009 whole entry): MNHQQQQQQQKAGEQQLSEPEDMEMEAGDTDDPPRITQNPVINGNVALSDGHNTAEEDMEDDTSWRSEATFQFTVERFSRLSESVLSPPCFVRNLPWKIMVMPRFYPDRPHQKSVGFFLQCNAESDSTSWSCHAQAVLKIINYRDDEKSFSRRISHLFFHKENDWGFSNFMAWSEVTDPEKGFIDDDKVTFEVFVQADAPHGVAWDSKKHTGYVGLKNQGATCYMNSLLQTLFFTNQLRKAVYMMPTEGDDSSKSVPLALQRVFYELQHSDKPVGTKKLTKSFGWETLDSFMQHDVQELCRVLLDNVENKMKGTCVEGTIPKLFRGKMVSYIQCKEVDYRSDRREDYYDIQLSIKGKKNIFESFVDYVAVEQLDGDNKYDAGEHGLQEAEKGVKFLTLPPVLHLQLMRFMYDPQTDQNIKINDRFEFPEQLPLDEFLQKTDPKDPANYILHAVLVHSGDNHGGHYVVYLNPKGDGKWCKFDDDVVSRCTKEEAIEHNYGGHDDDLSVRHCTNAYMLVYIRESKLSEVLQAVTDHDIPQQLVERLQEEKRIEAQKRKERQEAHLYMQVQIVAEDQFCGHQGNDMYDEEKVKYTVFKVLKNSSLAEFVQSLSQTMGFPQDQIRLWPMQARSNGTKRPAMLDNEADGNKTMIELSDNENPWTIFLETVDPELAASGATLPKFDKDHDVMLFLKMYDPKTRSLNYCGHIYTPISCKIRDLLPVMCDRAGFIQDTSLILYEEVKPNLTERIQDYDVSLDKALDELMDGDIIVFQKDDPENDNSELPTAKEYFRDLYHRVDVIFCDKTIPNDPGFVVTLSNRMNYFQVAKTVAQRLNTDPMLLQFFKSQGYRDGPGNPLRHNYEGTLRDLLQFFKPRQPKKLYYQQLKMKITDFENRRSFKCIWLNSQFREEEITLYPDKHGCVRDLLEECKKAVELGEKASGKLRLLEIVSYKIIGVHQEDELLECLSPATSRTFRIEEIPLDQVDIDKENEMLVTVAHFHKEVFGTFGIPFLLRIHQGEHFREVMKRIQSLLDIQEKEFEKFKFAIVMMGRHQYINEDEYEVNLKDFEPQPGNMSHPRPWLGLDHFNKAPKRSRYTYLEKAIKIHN
Sequence of 1A2 (P05177 whole entry): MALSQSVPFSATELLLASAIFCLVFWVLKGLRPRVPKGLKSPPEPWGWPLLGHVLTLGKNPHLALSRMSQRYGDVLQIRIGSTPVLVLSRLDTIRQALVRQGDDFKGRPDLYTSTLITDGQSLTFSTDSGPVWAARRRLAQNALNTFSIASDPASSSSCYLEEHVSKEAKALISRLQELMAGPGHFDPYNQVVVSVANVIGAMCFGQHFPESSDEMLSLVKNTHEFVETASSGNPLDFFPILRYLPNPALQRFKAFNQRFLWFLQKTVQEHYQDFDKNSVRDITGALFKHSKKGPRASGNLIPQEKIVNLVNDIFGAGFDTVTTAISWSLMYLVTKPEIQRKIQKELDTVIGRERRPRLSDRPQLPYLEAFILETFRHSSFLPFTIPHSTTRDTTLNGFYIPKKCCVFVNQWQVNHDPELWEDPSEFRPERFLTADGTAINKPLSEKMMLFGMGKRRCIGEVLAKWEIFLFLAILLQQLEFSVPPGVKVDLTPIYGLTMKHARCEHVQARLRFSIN
Sequence of 2C9 (P11712 whole entry): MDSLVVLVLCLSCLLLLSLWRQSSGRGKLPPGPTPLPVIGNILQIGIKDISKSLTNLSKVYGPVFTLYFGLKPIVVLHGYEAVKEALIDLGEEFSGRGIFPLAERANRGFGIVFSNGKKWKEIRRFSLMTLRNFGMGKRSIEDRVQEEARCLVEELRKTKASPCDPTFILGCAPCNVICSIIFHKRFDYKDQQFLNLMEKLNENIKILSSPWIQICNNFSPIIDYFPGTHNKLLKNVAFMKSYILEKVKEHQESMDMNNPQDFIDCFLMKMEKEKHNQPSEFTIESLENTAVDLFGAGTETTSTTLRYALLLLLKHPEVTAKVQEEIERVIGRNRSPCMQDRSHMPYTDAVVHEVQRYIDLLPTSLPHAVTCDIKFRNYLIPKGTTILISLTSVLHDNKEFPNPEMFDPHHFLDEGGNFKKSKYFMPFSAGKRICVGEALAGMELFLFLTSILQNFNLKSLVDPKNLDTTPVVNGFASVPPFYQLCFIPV
Sequence of 3A4 (P08684 whole entry): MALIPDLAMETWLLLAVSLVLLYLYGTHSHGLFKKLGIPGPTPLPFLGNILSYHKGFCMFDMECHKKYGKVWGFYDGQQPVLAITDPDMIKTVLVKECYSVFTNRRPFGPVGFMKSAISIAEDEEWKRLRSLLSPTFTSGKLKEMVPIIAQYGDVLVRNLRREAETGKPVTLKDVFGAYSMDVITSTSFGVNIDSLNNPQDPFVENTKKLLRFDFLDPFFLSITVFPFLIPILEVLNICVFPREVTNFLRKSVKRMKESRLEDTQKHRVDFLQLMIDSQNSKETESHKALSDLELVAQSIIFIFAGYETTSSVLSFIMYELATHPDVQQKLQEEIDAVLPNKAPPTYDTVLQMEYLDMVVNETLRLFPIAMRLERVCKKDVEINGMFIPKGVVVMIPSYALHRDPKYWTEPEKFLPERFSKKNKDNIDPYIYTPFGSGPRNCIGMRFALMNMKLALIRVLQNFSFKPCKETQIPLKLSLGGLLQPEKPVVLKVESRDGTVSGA

For `C[C@H](CC(=O)N1CCC(O)(Cn2cnc3c(-c4ccc(CN)cc4)n(C)nc3c2=O)CC1)c1ccccc1` [AD-04, (R)-3-(4-(Aminomethyl)phenyl)-6-((4-hydroxy-1-(3-phenylbutanoyl)piperidin-4-yl)methyl)-2-methyl-2H-pyrazolo[4,3-d]pyrimidin-7(6H)-one], the “circulating VEGF in mouse serum” value (VEGF) was “significant dose-dependent decrease”, the “migration (scratch wound healing)” value [1] was “did not modulate migration” and the sVEGF protein levels [2] was “dose-dependent decrease”. The “mRNA expression of anti-angiogenic short (191aa) isoform” value (VEGFA mRNA; hypoxia, 24 hours) was “up-regulated”, the “mRNA expression of pro-angiogenic long (371aa) isoform” value (VEGFA mRNA; hypoxia, 24 hours) was “strongly down-regulated” and the “VEGF mRNA levels” value (VEGFA mRNA; hypoxic conditions) was “down-regulated”. The “sensitivity of cancer cell lines” value ([3]; HT29 and H1299 (data not shown)) was “insensitive”, the “sensitivity of cancer cell lines” value ([3]; LNCaP and MCF-7 (data not shown)) was “sensitive” and the cell viability ([3]; high concentration, normoxia and hypoxia, 72 hours) was “do not affect cell viability”. For the same molecule, the “sVEGF levels in supernatants of cancer cell lines” value [4] was “not significantly affected”, the HIF-1α half-life (HIF-1α; HDF, hypoxia, cycloheximide 100 μg/mL, AD-04 1 μM) was 4 min and the “reduction of HIF-1α half-life” value (HIF-1α; versus untreated cells (6 minutes and 36 seconds)) was 40%.

For `CC1(C(=O)N2CCC(O)(Cn3cnc4c(cc(Cl)n4-c4ccc5c(c4)CCO5)c3=O)CC2)CC1` [ADC-159, 6-Chloro-7-(2,3-dihydrobenzofuran-5-yl)-3-((4-hydroxy-1-(1-methylcyclopropane-1-carbonyl)piperidin-4-yl)methyl)-3,7-dihydro-4H-pyrrolo[2,3-d]pyrimidin-4-One], the “MDCK A:B” value (MDCK; A:B) was 0.2, the “MDCK B:A” value (MDCK; B:A) was 50.1 and the efflux ratio (MDCK permeability) was 276. For the same molecule, the KSol (KSol) was 199 µM, the TSol (TSol) was 500 µM and the IC50 (USP7; asterisk not explained, read-out: USP7 FP IC50 (value in brackets marked *)) was 159 nM. The IC50 (USP7; read-out: USP7 FP IC50) was 386 nM, the “LM CLhep (h)” value (LM CLhep (h)) was 9 and the IC50 (3A4) was greater than 20000 nM. For the same molecule, the IC50 (1A2) was greater than 20000 nM, the EC50 (Ub-MDM2) was 93 nM and the “Hep CLhep (h)” value (Hep CLhep (h)) was 9. For the same molecule, the IC50 (2C9) was 11000 nM and the oral availability (Oral availability) was “improved oral availability”.
